For this assay, the target named is fly head P2 membranes. As to the kind of experiment: radiometric assay: displacement of 3H-dihydro-CJ-12662 from fly head P2 membranes (Ki; also single-concentration high throughput screen, % inhibition). More on the design: species or system Lucilia sericata. The conditions noted are these: radioligand binding to fly head P2 membranes; value used to calculate Ki values. As to the method: A further aspect of the invention is a novel binding assay which is used to assess the potential antiparasitic activity of these compounds by measuring how tightly they bind to membranes purified from parasite homogenates. The affinity is calculated according to how readily the compounds of the present invention displace a radiolabeled, reduced analogue of (1S,2R,4aS,5R,8R,8aR)-2-(acetyloxy)-8a-hydroxy-3,8-dimethyl-5-(1-methylethenyl)-1,2,4a,5,6,7,8,8a-octahydronaphthalen-1-yl(2S,3aR,9bR)-6-chloro-9b-hydroxy-5-methyl-1,2,3,3a,5,9b-hexahydropyrrolo[2,3-c][2,1]benzoxazine-2-carboxylate from these membranes.
The in vitro assay for measurement of compounds which displace ^3H-dihydro-(1S,2R,4aS,5R,8R,8aR)-2-(acetyloxy)-8a-hydroxy-3,8-dimethyl-5-(1-methylethenyl)-1,2,4a,5,6,7,8,8a-octahydronaphthalen-1-yl(2S,3aR,9bR)-6-chloro-9b-hydroxy-5-methyl-1,2,3,3a,5,9b-hexahydropyrrolo[2,3-c][2,1]benzoxazine-2-carboxylate from fly head P2 membranes represents another aspect of the invention and was performed as follows. […]

pKd: −log10 of the molar value.

Take “^3H-dihydro-(1S,2R,4aS,5R,8R,8aR)-2-(acetyloxy)-8a-hydroxy-3,8-dimethyl-5-(1-methylethenyl)-1,2,4a,5,6,7,8,8a-octahydronaphthalen-1-yl(2S,3aR,9bR)-6-chloro-9b-hydroxy-5-methyl-1,2,3,3a,5,9b-hexahydropyrrolo[2,3-c][2,1]benzoxazine-2-carboxylate [^3H-dihydro-CJ-12662]”: the pKd (usually the Kd on a negative log10 scale, so that one unit is a factor of ten) is 8.15.

(Values after patent publication US7494992B2, “Antiparasitic terpene alkaloids” (Pfizer Inc., priority 2003, dated 2009).)
